Reference: patent US7307166B1, “Oxpurine nucleosides and their congeners, and acyl, derivatives thereof, for improvement of hematopoiesis” (Wellstat Therapeutics Corporation, priority 1987, dated 2007)

Assays:
female Balb/C mice = assay: Cecal ligation and puncture (CLP) polymicrobial sepsis survival; type: in vivo, mouse; details: 25 mg/kg i.p. daily 3 days prior to CLP
Procedure: N^2,3′,5′-tripalmitoyldeoxyguanosine (PdG) stimulates neutrophil production. Since neutrophils are important in defense against bacteria, PdG was tested for beneficial effects in bacterial sepsis. Bacterial infection as a consequence of the immunocompromising effects of radiotherapy or chemotherapy is an important cause of mortality in cancer patients. The potential utility of PdG was evaluated in the cecal ligation and puncture model (CLP), a model of polymicrobial sepsis in which the cecum of an animal is tied off without otherwise obstructing intestinal flow, and then punctured to allow fecal matter trapped in the cecum to leak into the peritoneal cavity (O'Reilly, et al. Journal of Trauma, 33:679-682). This release causes peritonitis as well as subsequent bacteremia, shock, and mortality. The CLP model is a particularly rigorous challenge because it creates a severe and complex polymicrobial sepsis due to both Gram-negative and Gram-positive bacteria. The CLP model is analogous to a ruptured appendix or punctured intestine in humans.
36 female Balb/C mice were employed. The mice were randomly assigned to one of three groups of twelve mice each. Two groups were treated once per day for three days prior to CLP by i.p. injection with either 25 mg/kg PdG or with vehicle alone. One group underwent the CLP procedure but received no other treatment. Survival was monitored for 60 days after CLP.

hematopoietic stem cells = assay: Stem cell mobilization; type: in vivo, mouse
thymocytes = assay: Corticosteroid-induced apoptosis in mouse thymus; type: in vivo
Procedure: Thymic lymphocytes, or thymocytes, undergo a suicide process known as apoptosis or programmed cell death in response to various stimuli, including ionizing radiation, calcium ionophores, glucocorticoid hormones, and other agents. Apoptosis is also part of the normal physiological process of development and of lymphocyte (and other cell) selection.
Eight male B6D2F1 mice weighing approximately twenty-five grams were given a single injection of either palmitoyldeoxyguanosine (25 mg/kg, i.p.) in a Tween-DMSO vehicle (0.02% Tween and 7.5% DMSO in physiological saline) or vehicle alone. Forty-eight hours later these mice were given an i.p. injection of a long-acting corticosteroid, methylprednisolone acetate (Depo-Medrol; 250 mg/kg). Forty-eight hours following administration of the corticosteroid, all eight of these animals and four additional untreated animals (basals) were sacrificed by cervical dislocation, the thymuses and spleens removed and weighed, and thymic cell number and viability measured by established methods.

TNF-alpha = assay: LPS-induced serum TNF-alpha (ELISA); type: in vivo, mouse
Procedure: Sixty-three female Balb/C mice were randomly assigned to one of three groups. The animals in one group received a single daily dose of N^2,3′,5′-tripalmitoyldeoxyguanosine (PdG) (25 mg/kg, i.p.), while a second group received a single daily dose of the PdG treatment vehicle (control). The third group was left untreated. On the fourth day 100 μg salmonella typhimurium LPS was administered to all three groups. Serum samples were taken just prior to LPS administration (t=0) and at two, four, six, eight, ten, twelve, sixteen, and twenty hours after LPS administration. The samples were then frozen until the time of assay. Serum levels of TNF-alpha, and IFN-gamma were measured by ELISA.
In the tables below, units for cytokine concentrations are picograms per ml. A value of 0 indicates cytokine levels below the detection limit of the assay (50 to 100 pg/ml).

[1] = test system: Normal Balb/C female mice; assay: Hematopoiesis in normal mice; type: in vivo, mouse
Procedure: Normal, otherwise untreated, female Balb/C mice weighing approximately 20 grams each received a total of 4 or 9 0.4 ml intraperitoneal injections (one per day) of either Tween-80 (0.2%) (controls), palmitoylguanosine ([…]), or palmitoyldeoxyinosine ([…]). Twenty-four hours after the 4th or 9th treatment, groups of 5 or 6 animals from each of the 3 groups were bled and then sacrificed by cervical dislocation. Spleens were removed and weighed, and complete blood cell counts performed.
Normal Balb/C female mice weighing approximately 20 grams each were given a daily 0.4 ml i.p. injection of either physiological saline (controls), palmitoylguanosine (2.6 μmoles/mouse), palmitoyldeoxyguanosine (2.6 μmoles/mouse), monopalmitoylguanosine 2′,3′-acyclic dialcohol (2.6 μmoles/mouse), and palmitoyl-8-bromoguanosine (2.6 μmoles/mouse) for 4 days. On the fifth day all 3 animals in each of the 5 groups were bled and then sacrificed by cervical dislocation. Spleens were removed and weighed, and complete blood cell counts performed. Femoral bone marrow from each mouse was collected and a differential cell count performed on marrow smears.

Row | Compound | mice alive (female Balb/C mice; 72 hours after CLP) | animals surviving / total (female Balb/C mice; 60 day observation period) | survival (female Balb/C mice; 60 day observation period) [%] | mobilization of stem cells (hematopoietic stem cells; PdG alone 25 mg/kg) | response to cyclophosphamide (stem cell mobilization) with PdG (hematopoietic stem cells; PdG with cyclophosphamide) | mobilizing stem cells in intact and splenectomized mice (hematopoietic stem cells; with and without cyclophosphamide co-treatment) | Cells/Thymus (thymocytes; 25 mg/kg i.p. 48 h before Depo-Medrol 250 mg/kg, 48 h after) | Spleen Wt. (thymocytes; 25 mg/kg i.p. once, 48 h before Depo-Medrol 250 mg/kg, 48 h after corticosteroid) [mg] | % Viable (thymocytes; thymic cells, 25 mg/kg i.p. 48 h before Depo-Medrol 250 mg/kg, 48 h after) [%] | serum TNF-alpha (TNF-alpha; 0 hr after LPS 100 μg, PdG 25 mg/kg i.p. daily before, 0 = below detection limit) [picograms per ml] | serum TNF-alpha (TNF-alpha; 2 hr after LPS) [picograms per ml] | serum TNF-alpha (TNF-alpha; 4 hr after LPS) [picograms per ml] | serum TNF-alpha (TNF-alpha; 6 hr after LPS) [picograms per ml] | Peak TNF-alpha levels vs control groups (TNF-alpha; PdG 25 mg/kg i.p.) | spleen weights ([1]; Ex 44: day 5, 2.5 Moles/mouse/day i.p., 4 injections) | total leukocyte counts ([1]; Ex 44: day 10, 9 injections) | spleen weight ([1]; Ex 56: fifth day, 2.6 μmoles/mouse i.p. daily 4 days)
1 | CCCCCCCCCCCCCCCC(=O)Nc1nc2c(ncn2[C@H]2C[C@H](OC(=O)CCCCCCCCCCCCCCC)[C@@H](COC(=O)CCCCCCCCCCCCCCC)O2)c(=O)[nH]1 [PdG, 3′,5′-O-N^2-tripalmitoyl-2′-deoxyguanosine] | All | 10/12 | 83 | can induce the mobilization | seven to eight-fold greater | equally effective | 64 ± 12 ×10^6 | 61 ± 11 | 87 ± 3 | 0 | 1509 ± 86 | 529 ± 141 | 486 ± 63 | four-fold lower | – | – | –
2 | CCCCCCCCCCCCCCCC(=O)OC[C@H]1O[C@@H](n2cnc3c(=O)[nH]c(N)nc32)[C@H](O)[C@@H]1O | – | – | – | – | – | – | – | – | – | – | – | – | – | – | significantly greater | significantly elevated | significantly elevated
